Reference: patent US20240174690A1, “ANNULATED 2-AMINO-3-CYANO THIOPHENES AND DERIVATIVES FOR THE TREATMENT OF CANCER” (BOEHRINGER INGELHEIM INTERNATIONAL GMBH, priority 2021, published 2024)
In brackets after ≈: the same amount, converted by molar mass. Where two headings read alike, the source gives them in different places.

Columns and labels:
[1] = Solubility measurement (DMSO solution method), McIlvaine buffer pH 4.5 or 6.8; format: physicochemical; conditions: aqueous buffer, kinetic from dmso stock, DMSO stock diluted to 250 μM, 24 h shaking at ambient temperature
Summary of the method: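 Filtrate concentration by LC-UV, calibrated to a known-concentration reference dissolved completely in acetonitrile/water (1:1). Samples came from 250 µM final dilutions of DMSO stock in pH 4.5 or 6.8 McIlvaine buffer, shaken 24 h at ambient temperature, then filtered.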

[2] = Caco-2 assay (permeability PappAB, PappBA, efflux ratio); format: in vitro ADME; conditions: human, Caco-2, 10 μM test compound, pH 7.4; for efflux ratio at 90 min, 10 μM: efflux ratio PappBA/PappAB, read-out: Caco ER; for Papp A→B at 90 min, 10 μM: apical to basolateral
Summary of the method: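 Bidirectional permeability (apical-to-basolateral and reverse) through polarized Caco-2 monolayers, BSA 0.25% on each side, 37 °C. Donor and receiver sampled at 0-90 min after 25-30 min preincubation, analysed by HPLC/MS/MS. Apparent permeabilities derived from transfer rate normalised to area and t=0 donor concentration; ER taken as PappBA over PappAB.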

[3] = system: KRAS G12C-dependent Ba/F3 cells; assay: Ba/F3 proliferation assay, KRAS G12C; format: cell-based; conditions: Mus musculus, BaF3, 72 h, AlamarBlue
Summary of the method: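 IL-3-independent Ba/F3 lines driven by transduced KRAS G12C, G12D or G12V, with puromycin withdrawn about ten days before testing. Viability after compound treatment measured by AlamarBlue fluorescence in duplicate, and values derived by curve fitting.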

NCI-H358 cells = assay: NCI-H358 CTG proliferation assay (120 h) (NSCLC, G12C); format: cell-based, human; conditions: Homo sapiens
Summary of the method: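 IC50 values derive from four-parameter nonlinear regression of CellTiter-Glo viability (RLU relative to DMSO wells) after 120 h of exposure. Cells were plated in RPMI-1640 + 10% FCS at 2000 per well (assay 1) or 200 per well (assay 2). Untreated cells were measured at compound addition as T0.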

LOVO cells = assay: LOVO CTG proliferation assay (120 h) (CRC, G13D); format: cell-based; conditions: Homo sapiens, CTG 120 h
Summary of the method: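 IC50 comes from a four-parameter fit of CellTiter-Glo viability, expressed as RLU relative to DMSO wells. Compound exposure lasted 120 h in LOVO cells seeded the day before at 1000 cells/well in DMEM with 10% fetal calf serum.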

[4] = McIlvaine buffer pH 4.5, read-out: solubility pH 4.5
[5] = McIlvaine buffer pH 6.8, read-out: solubility pH 6.8
[6] = assay 2, CTG, read-out: H358 (assay 2) IC50
[7] = assay 1, CTG, read-out: H358 (assay 1) IC50

solubility at 24 h [1, 4] | solubility at 24 h [1, 5] | efflux ratio at 90 min, 10 μM [2] | IC50 [3] | IC50 (NCI-H358 cells; [6]) | IC50 (LOVO cells) | Papp A→B at 90 min, 10 μM [2] | IC50 (NCI-H358 cells; [7]) | SMILES
83 µg/mL (≈ 135 µM) | 33 µg/mL (≈ 53.8 µM) | 3.3 | 2 nM | 2 nM | 158 nM | 11.1 ×10⁻⁶ cm/s | 6 nM | CNC(=O)c1ccn(-c2cc(O[C@@H](C)[C@@H]3CCCN3C)nc(-c3noc4c3CCC[C@@]43CCCc4sc(N)c(C#N)c43)n2)n1 [II-20]
80 µg/mL (≈ 133 µM) | 34 µg/mL (≈ 56.7 µM) | 6.6 | 4 nM | 4 nM | 29 nM | 3.5 ×10⁻⁶ cm/s | 10 nM | C[C@H](Oc1cc(-n2ccc(C(N)=O)n2)nc(-c2noc3c2CCC[C@@]32CCCc3sc(N)c(C#N)c32)n1)[C@@H]1CCCN1C [II-21]
108 µg/mL (≈ 183 µM) | < 1 µg/mL | 0.7 | 18 nM | 44 nM | 345 nM | 11 ×10⁻⁶ cm/s | 112 nM | C[C@H](Oc1cc(-c2ccn(C)n2)nc(-c2noc3c2CCC[C@@]32CCCc3sc(N)c(C#N)c32)n1)[C@@H]1C[C@@H](F)CN1C [II-27]
119 µg/mL (≈ 186 µM) | 9 µg/mL (≈ 14 µM) | 2 | 34 nM | 136 nM | 149 nM | – | – | C[C@H](Oc1cc(-c2ccn([C@H]3CCCOC3)n2)nc(-c2noc3c2CCC[C@@]32CCCc3sc(N)c(C#N)c32)n1)[C@@H]1CCCN1C [II-42]
121 µg/mL (≈ 189 µM) | 9 µg/mL (≈ 14 µM) | 1.2 | 37 nM | 117 nM | 120 nM | 10 ×10⁻⁶ cm/s | – | C[C@H](Oc1cc(-c2ccn(C[C@@H]3CCCO3)n2)nc(-c2noc3c2CCC[C@@]32CCCc3sc(N)c(C#N)c32)n1)[C@@H]1CCCN1C [II-43]

The next lines start with the compound.

SMILES | solubility at 24 h [1, 4] | solubility at 24 h [1, 5] | efflux ratio at 90 min, 10 μM [2] | IC50 [3] | IC50 (NCI-H358 cells; [6]) | IC50 (LOVO cells) | Papp A→B at 90 min, 10 μM [2] | IC50 (NCI-H358 cells; [7])
C[C@H](Oc1cc(-n2ccc(C(=O)N[C@@H]3CCOC3)n2)nc(-c2onc3c2CCC[C@@]32CCCc3sc(N)c(C#N)c32)n1)[C@@H]1CCCN1C [I-56] | 108 µg/mL (≈ 161 µM) | 97 µg/mL (≈ 145 µM) | 10.4 | 3 nM | 2 nM | 23 nM | – | –
COCCNC(=O)c1ccn(-c2cc(O[C@@H](C)[C@@H]3CCCN3C)nc(-c3onc4c3CCC[C@@]43CCCc4sc(N)c(C#N)c43)n2)n1 [I-58] | > 128 µg/mL | 94 µg/mL (≈ 143 µM) | 3.4 | 4 nM | 5 nM | 29 nM | 14 ×10⁻⁶ cm/s | –
C[C@H](Oc1cc(N2C[C@@H](N(C)C)[C@@H](O)C2)nc(-c2noc3c2CCC[C@@]32CCCc3sc(N)c(C#N)c32)n1)[C@@H]1CCCN1C [II-10] | > 143 µg/mL | > 135 µg/mL | 68 | 844 nM | 570 nM | 972 nM | 0.3 ×10⁻⁶ cm/s | –
C[C@H](Oc1cc(-n2ccc(C(=O)NC3(C)COC3)n2)nc(-c2noc3c2CCC[C@@]32CCCc3sc(N)c(C#N)c32)n1)[C@@H]1CCCN1C [II-26] | > 194 µg/mL | 62 µg/mL (≈ 92.6 µM) | 5.8 | 5 nM | 4 nM | 109 nM | 11 ×10⁻⁶ cm/s | –
C[C@H](Oc1cc(N2CCNC3(COC3)C2)nc(-c2noc3c2CCC[C@@]32CCCc3sc(N)c(C#N)c32)n1)[C@@H]1CCCN1C [II-31] | > 151 µg/mL | > 133 µg/mL | – | 69 nM | 143 nM | 182 nM | < 0.1 ×10⁻⁶ cm/s | –
C[C@H](Oc1cc(N2CCNC3(CCC3)C2)nc(-c2noc3c2CCC[C@@]32CCCc3sc(N)c(C#N)c32)n1)[C@@H]1CCCN1C [II-40] | > 140 µg/mL | > 133 µg/mL | 39.7 | 381 nM | 1300 nM | 508 nM | 0.8 ×10⁻⁶ cm/s | –
C[C@H](Oc1cc(C2CCCO2)nc(-c2noc3c2CCC[C@@]32CCCc3sc(N)c(C#N)c32)n1)[C@@H]1CCCN1C (stereo partly shown) [II-44] | > 115 µg/mL | 104 µg/mL (≈ 185 µM) | 1.5 | 28 nM | 398 nM | 92 nM | 15 ×10⁻⁶ cm/s | –
C[C@H](Oc1cc(N2CCC(N(C)C)CC2)nc(-c2noc3c2CCC[C@@]32CCCc3sc(N)c(C#N)c32)n1)[C@@H]1CCCN1C [II-48] | > 164 µg/mL | > 149 µg/mL | 32.2 | 724 nM | 2160 nM | 736 nM | 0.6 ×10⁻⁶ cm/s | –
[2H]C([2H])([2H])N1C[C@H](F)C[C@H]1[C@H](C)Oc1cc(N2CCN(C)C3(CC3)C2)nc(-c2noc3c2CCC[C@@]32CCCc3sc(N)c(C#N)c32)n1 [II-209] | > 150 µg/mL | < 1 µg/mL | 0.8 | 271 nM | 136 nM | 493 nM | – | –
